Assays:
Assay in all cases: relative viability (nuclei count vs DMSO), 5 days (fraction); higher = more cells survive
[1] = compound: Nc1ccccc1NC(=O)c1ccc(CNC(=O)OCc2cccnc2)cc1 [Entinostat] + N=C(N)NC(=N)NCCc1ccccc1 [Phenformin] (partner 250 µM)
Method in brief: (§1)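 Lung cancer cell lines in 1536-well plates got either a single drug or a fixed anchor-drug dose together with five library-drug doses (not always all listed) in √10 steps, by pin tool, on the day after seeding. Nuclei were counted after 5 days, and relative viability is the treated-to-vehicle ratio of nuclei counts. Values are medians of duplicate plates.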

[2] = compound: C1COCCN1C2=NC(=NC3=C2OC4=C3C=CC=N4)C5=CC(=CC=C5)NC(=O)C6=CN=C(C=C6)N + CC(=O)Nc1cccc(-n2c(=O)n(C3CC3)c(=O)c3c(Nc4ccc(I)cc4F)n(C)c(=O)c(C)c32)c1 [Trametinib] (partner 0.02 µM)
Method in brief: as §1

[3] = compound: Nc1ccccc1NC(=O)c1ccc(CNC(=O)OCc2cccnc2)cc1 [Entinostat] + O=C(c1cc(Cc2n[nH]c(=O)c3ccccc23)ccc1F)N1CCN(C(=O)C2CC2)CC1 [Olaparib] (partner 8 µM)
Method in brief: as §1

[4] = compound: Nc1ccccc1NC(=O)c1ccc(CNC(=O)OCc2cccnc2)cc1 [Entinostat] + CC1(C)CCC(c2ccc(Cl)cc2)=C(CN2CCN(c3ccc(C(=O)NS(=O)(=O)c4ccc(N[C@H](CCN5CCOCC5)CSc5ccccc5)c(S(=O)(=O)C(F)(F)F)c4)cc3)CC2)C1 [Navitoclax] (partner 0.5 µM)
Method in brief: as §1

| Cell Line | relative viability ([1]; first compound 0.02 µM) | relative viability ([1]; first compound 0.06325 µM) | relative viability ([1]; first compound 0.2 µM) | relative viability ([1]; first compound 0.6325 µM) | relative viability ([1]; first compound 2 µM) | relative viability ([2]; first compound 0.02 µM) | relative viability ([2]; first compound 0.06325 µM) | relative viability ([2]; first compound 0.2 µM) | relative viability ([2]; first compound 0.6325 µM) | relative viability ([2]; first compound 2 µM) | relative viability ([3]; first compound 0.02 µM) | relative viability ([3]; first compound 0.06325 µM) | relative viability ([3]; first compound 0.2 µM) | relative viability ([3]; first compound 0.6325 µM) | relative viability ([3]; first compound 2 µM) | relative viability ([4]; first compound 0.02 µM) | relative viability ([4]; first compound 0.06325 µM) | relative viability ([4]; first compound 0.2 µM) | relative viability ([4]; first compound 0.6325 µM) | relative viability ([4]; first compound 2 µM) |
| --- | --- | --- | --- | --- | --- | --- | --- | --- | --- | --- | --- | --- | --- | --- | --- | --- | --- | --- | --- | --- |
| NCI-H1993 | 0.489 | 0.579 | 0.495 | 0.536 | 0.563 | 0.521 | 0.583 | 0.571 | 0.421 | 0.526 | 1.25 | 1.11 | 1.01 | 0.892 | 0.375 | 0.869 | 0.857 | 0.789 | 0.841 | 0.73 |
| NCI-H2009 | 0.466 | 0.499 | 0.468 | 0.418 | 0.304 | 0.264 | 0.273 | 0.221 | 0.245 | 0.256 | 0.673 | 0.695 | 0.639 | 0.486 | 0.434 | 1.21 | 1.19 | 1.13 | 0.816 | 0.52 |
| NCI-H2023 | 0.355 | 0.407 | 0.327 | 0.162 | 0.0942 | 0.509 | 0.717 | 0.564 | 0.416 | 0.246 | 0.327 | 0.253 | 0.185 | 0.0826 | 0.0815 | 0.916 | 0.692 | 0.496 | 0.163 | 0.138 |
| NCI-H2085 | 0.716 | 0.774 | 0.706 | 0.461 | 0.375 | 0.586 | 0.582 | 0.359 | 0.549 | 0.359 | 0.755 | 0.726 | 0.717 | 0.592 | 0.378 | 1 | 1.06 | 1.04 | 0.801 | 0.604 |
| NCI-H2087 | 0.425 | 0.474 | 0.416 | 0.319 | 0.168 | 0.209 | 0.178 | 0.234 | 0.193 | 0.173 | 0.498 | 0.554 | 0.511 | 0.329 | 0.206 | 0.785 | 0.853 | 0.724 | 0.586 | 0.337 |
| NCI-H2126 | 0.53 | 0.512 | 0.535 | 0.452 | 0.363 | 0.592 | 0.569 | 0.618 | 0.547 | 0.45 | 0.953 | 0.925 | 0.886 | 0.742 | 0.539 | 0.849 | 0.833 | 0.855 | 0.548 | 0.396 |
| NCI-H2170 | 0.466 | 0.407 | 0.444 | 0.376 | 0.297 | 0.936 | 0.987 | 0.84 | 0.919 | 0.399 | 0.565 | 0.557 | 0.515 | 0.341 | 0.215 | 0.626 | 0.553 | 0.502 | 0.33 | 0.196 |
| NCI-H2228 | 0.285 | 0.334 | 0.395 | 0.22 | 0.207 | 0.578 | 0.615 | 0.449 | 0.48 | 0.454 | 0.633 | 0.749 | 0.613 | 0.254 | 0.176 | 1.03 | 0.758 | 0.52 | 0.365 | 0.349 |

Reference: the supplement of paper PMC10307832
